For 16 molecules, IC50 and MIC results are on record in PMC8781450, “Isoquinoline Alkaloids as Protein Tyrosine Phosphatase Inhibitors from a Deep-Sea-Derived Fungus Aspergillus puniceus” (Marine Drugs, 2022).

≈ marks a conversion by molar mass, not a printed value. Like-named read-outs stand apart in the source and are kept apart here.

The target of series [1] is T1, CD45 (Homo sapiens, UniProt P08575).
T1 sequence (P08575 26-1306): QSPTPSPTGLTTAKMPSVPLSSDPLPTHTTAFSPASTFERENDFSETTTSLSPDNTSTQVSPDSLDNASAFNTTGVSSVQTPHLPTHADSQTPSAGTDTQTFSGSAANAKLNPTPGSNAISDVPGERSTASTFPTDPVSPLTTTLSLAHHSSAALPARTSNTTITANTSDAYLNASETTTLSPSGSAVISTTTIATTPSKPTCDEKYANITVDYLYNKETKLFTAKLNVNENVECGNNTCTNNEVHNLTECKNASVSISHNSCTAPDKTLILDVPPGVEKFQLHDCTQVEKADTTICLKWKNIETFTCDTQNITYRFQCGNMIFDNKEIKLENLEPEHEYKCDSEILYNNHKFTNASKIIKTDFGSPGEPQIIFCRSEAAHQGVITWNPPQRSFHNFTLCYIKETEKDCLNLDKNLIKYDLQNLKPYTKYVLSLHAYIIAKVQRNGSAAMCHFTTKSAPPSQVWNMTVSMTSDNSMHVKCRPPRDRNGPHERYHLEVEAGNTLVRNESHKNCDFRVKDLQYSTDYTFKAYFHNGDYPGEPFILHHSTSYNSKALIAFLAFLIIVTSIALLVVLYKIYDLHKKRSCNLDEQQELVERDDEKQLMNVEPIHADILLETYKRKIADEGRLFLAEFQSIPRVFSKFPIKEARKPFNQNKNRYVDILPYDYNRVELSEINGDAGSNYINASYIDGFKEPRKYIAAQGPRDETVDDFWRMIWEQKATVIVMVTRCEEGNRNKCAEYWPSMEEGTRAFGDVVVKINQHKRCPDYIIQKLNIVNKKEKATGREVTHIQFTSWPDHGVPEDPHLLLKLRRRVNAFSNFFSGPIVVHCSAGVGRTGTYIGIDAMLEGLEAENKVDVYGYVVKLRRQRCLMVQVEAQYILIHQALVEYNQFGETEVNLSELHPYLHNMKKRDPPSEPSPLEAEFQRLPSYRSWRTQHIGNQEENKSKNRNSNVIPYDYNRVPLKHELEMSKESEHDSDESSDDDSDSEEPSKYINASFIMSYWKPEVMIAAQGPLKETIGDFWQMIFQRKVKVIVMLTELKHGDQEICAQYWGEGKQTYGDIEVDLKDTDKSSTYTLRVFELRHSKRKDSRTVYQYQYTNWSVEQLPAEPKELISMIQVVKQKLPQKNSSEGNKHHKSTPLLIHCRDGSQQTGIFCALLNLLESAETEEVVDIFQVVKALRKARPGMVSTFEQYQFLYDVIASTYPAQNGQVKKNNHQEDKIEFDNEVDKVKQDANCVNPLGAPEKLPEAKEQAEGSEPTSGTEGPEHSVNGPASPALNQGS
The series can be described thus: Protein phosphatase inhibition assay, CD45.

Series [2] has as its target T2, PTP1B (Homo sapiens, UniProt P18031).
T2 sequence (P18031 1-435): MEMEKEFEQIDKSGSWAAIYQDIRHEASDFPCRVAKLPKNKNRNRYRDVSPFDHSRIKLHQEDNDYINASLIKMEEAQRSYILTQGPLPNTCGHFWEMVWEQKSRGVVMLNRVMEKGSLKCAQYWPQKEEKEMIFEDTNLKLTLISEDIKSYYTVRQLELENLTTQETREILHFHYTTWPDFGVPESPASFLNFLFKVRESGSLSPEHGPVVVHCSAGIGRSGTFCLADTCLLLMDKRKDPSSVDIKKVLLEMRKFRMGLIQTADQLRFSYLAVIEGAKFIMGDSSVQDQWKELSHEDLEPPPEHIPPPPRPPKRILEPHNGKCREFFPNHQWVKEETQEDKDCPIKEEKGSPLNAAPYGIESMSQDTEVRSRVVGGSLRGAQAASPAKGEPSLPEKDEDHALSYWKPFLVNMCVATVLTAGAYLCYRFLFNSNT
The series can be described thus: Protein phosphatase inhibition assay, PTP1B.

The target of series [3] is T3, TCPTP (Homo sapiens, UniProt P17706).
T3 sequence (P17706 1-415): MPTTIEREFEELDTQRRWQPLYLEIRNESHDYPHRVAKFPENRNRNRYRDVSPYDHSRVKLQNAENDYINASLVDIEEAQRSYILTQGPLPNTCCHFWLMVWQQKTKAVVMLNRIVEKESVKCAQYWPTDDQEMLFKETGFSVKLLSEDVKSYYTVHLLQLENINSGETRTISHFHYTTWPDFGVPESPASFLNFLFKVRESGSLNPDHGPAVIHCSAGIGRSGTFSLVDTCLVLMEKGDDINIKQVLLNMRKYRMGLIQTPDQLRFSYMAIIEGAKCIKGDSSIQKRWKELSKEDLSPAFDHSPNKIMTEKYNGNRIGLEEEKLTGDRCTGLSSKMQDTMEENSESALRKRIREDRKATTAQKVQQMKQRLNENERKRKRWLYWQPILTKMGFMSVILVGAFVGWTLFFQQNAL
The series can be described thus: Protein phosphatase inhibition assay, TCPTP.

Series [4] addresses LAR (Homo sapiens, UniProt P10586). Description: Protein phosphatase inhibition assay, LAR.
Series [5] in a line: Cytotoxicity by CCK-8 method. It is filed as cell-based. The settings on record: human, H1975 lung adenocarcinoma cells, read-out: Cytotoxicity (IC50) H1975 Cell (after 24 h). The procedure:
Cytotoxic activity was evaluated using human lung adenocarcinoma cell line H1975 by CCK-8 method. Briefly, each of the test compounds was dissolved in DMSO and further diluted to give final concentrations of 80, 40, 20, 10, 5, 2.5, and 1.25 µg/mL, respectively. H1975 cells (5 × 10^3 cells/plate) were seeded in 96-well plates and treated with compounds at the indicated concentration for 24 h, and then 10 μL CCK-8 reagent was added to each well, and the plates were incubated at 37 °C for another 4 h. Next, the optical density was measured at a wavelength of 450 nm with the Bio-Rad (Hercules, CA, USA) microplate reader. Dose–response curves were generated, and the IC50 values were calculated from the linear portion of log dose–response curves.
On the technique in general: Tetrazolium dyes change colour on reduction, which living cells bring about.

Series [6] deals with SHP1 (Homo sapiens, UniProt P29350). Description: Protein phosphatase inhibition assay, SHP1.
In series [7] the test system is Escherichia coli. The series can be described thus: Antibacterial 2-fold dilution assay, E. coli. The following applies: 12 h, read-out: MIC, Escherichia coli.
Procedure: (§1) Antibacterial activities of 1–14 against E. coli, S. aureus and MRSA were evaluated using the 2-fold dilution assay in 96-microwell plates. Briefly, all the indicator bacteria were cultured on Luria−Bertani (LB) agar plates at 37 °C for 12 h, and then a single colony was picked into LB liquid medium and cultivated on a rotary shaker at 37 °C for 12 h. Then, the bacterial suspensions with LB medium were diluted until the difference of the OD600 values between the bacterial suspensions and the medium was 0.01~0.02. […] The 96-well plates were incubated at 37 °C for 12 h. MIC value was determined as the lowest concentration with no visible bacterial growth. Ampicillin was used as the positive control and DMSO as the negative control. All experiments were performed three times.
The subject of series [8] is methicillin-resistant S. aureus (MRSA). The series can be described thus: Antibacterial 2-fold dilution assay, MRSA. The following applies: Staphylococcus aureus, 12 h, read-out: MIC, methicillin-resistant S. aureus (MRSA).
Procedure: as §1
Series [9] has as its system Staphylococcus aureus. The series can be described thus: Antibacterial 2-fold dilution assay, S. aureus. The following applies: 12 h, read-out: MIC, Staphylococcus aureus.
Procedure: as §1

Sequence of LAR (P10586 30-1907): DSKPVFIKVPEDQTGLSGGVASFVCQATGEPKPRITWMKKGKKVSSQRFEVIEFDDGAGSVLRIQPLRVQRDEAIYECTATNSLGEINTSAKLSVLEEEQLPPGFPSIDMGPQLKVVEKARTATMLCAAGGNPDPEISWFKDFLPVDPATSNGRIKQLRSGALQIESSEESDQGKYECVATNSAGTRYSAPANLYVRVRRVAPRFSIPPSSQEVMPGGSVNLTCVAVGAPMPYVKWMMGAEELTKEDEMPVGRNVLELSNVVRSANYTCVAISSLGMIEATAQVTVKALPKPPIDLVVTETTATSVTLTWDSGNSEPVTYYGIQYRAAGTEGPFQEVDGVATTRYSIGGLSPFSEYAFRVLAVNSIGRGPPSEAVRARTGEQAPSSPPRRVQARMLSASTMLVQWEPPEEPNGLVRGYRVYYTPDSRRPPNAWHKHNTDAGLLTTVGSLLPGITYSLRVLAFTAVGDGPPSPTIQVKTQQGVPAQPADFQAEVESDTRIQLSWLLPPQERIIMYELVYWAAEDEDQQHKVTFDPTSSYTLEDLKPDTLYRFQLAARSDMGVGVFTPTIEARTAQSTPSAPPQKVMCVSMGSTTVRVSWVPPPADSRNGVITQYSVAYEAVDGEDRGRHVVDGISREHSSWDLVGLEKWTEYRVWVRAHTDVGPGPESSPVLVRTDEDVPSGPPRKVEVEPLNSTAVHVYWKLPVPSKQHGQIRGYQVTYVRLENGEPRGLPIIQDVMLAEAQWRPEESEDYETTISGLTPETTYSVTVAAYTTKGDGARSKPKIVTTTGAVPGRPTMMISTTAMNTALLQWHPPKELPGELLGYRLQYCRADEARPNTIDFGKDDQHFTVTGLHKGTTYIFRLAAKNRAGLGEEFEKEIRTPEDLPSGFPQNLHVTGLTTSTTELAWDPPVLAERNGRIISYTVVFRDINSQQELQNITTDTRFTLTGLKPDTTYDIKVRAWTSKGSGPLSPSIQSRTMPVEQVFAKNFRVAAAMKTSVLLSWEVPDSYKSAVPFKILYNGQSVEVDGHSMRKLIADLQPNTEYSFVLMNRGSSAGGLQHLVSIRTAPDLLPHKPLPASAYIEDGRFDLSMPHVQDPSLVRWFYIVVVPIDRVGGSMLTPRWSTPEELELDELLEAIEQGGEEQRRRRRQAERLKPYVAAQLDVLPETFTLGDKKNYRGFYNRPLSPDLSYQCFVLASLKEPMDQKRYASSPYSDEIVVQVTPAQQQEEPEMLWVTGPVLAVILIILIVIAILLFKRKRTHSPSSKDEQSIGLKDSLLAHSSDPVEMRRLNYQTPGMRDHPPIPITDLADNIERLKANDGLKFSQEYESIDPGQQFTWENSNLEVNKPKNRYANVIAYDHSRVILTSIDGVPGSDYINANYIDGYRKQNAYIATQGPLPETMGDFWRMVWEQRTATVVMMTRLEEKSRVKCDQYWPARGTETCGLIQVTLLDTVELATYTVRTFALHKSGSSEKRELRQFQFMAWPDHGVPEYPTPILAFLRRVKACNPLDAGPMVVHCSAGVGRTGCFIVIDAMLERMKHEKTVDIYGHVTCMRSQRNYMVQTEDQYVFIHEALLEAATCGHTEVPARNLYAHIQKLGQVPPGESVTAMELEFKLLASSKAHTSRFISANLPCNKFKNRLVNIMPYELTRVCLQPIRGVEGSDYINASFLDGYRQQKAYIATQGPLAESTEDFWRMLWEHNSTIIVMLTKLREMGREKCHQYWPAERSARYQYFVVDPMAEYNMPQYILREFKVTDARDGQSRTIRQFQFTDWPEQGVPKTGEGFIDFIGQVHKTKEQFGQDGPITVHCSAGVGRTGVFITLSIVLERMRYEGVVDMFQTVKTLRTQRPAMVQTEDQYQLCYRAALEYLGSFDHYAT
Sequence of SHP1 (P29350 whole entry): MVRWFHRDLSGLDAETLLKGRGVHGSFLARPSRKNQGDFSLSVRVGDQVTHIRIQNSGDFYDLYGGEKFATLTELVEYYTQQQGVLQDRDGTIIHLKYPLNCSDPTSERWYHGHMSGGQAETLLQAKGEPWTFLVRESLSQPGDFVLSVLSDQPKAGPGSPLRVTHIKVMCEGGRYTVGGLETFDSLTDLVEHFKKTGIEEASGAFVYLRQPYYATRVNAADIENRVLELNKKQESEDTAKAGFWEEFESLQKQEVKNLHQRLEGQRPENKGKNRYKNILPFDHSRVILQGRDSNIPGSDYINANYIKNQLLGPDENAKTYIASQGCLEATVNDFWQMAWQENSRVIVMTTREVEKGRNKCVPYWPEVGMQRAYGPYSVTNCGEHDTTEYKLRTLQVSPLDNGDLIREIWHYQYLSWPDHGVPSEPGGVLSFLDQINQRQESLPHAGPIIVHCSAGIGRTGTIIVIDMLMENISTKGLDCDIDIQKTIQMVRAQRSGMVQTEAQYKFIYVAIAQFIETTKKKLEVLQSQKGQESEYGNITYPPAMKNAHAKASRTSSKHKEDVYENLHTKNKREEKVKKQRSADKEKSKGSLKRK

With `CC(=O)c1ccc(NC2=C(Cl)C(=O)c3ccccc3C2=O)cc1` [AACQ, 2-[(4-acetylphenyl)amino]-3-chloronaphthoquinone, reference compound], in [1] (read-out: Inhibitory Effect against Phosphatases (IC50) CD45), the IC50 was found to be 0.29 µM.

As for `COc1cc(O)c2cnccc2c1` [Compound 1, 6-methoxy-8-hydroxy-isoquinolin], the IC50 in series [2] turned out to be 182 µM; in [3] it was 197 µM; in series [4], 100 µM; in [1], 29.7 µM; in series [6] it was 38.3 µM. The IC50 at 24 h in series [5] came out at 76.2 µM.

Regarding `COc1cc2ccncc2c(O)c1C` [Compound 2, 6-methoxy-7-methyl-8-hydroxy-isoquinolin], the IC50 in series [2], in series [3], in series [4], in series [1] and in series [6] was more than 200 µM throughout. For the same molecule, in series [5], the IC50 at 24 h is more than 80 µM.

With `COc1cc2ccncc2c(O)c1Cc1c(OC)cc2ccncc2c1O` [Compound 3, Puniceusine C], the concentration for half-maximal inhibition (IC50) in series [2] was 64.5 µM; in series [3], more than 200 µM; in [4] it was 21.9 µM; in series [1] it was 8.4 µM; in series [6] it was 20.7 µM. Also, the concentration for half-maximal inhibition (IC50) at 24 h in series [5] amounted to 71.3 µM.

Turning to `COc1cc2ccncc2c(O)c1Cc1c(OC)cc(O)c2cnccc12` [Compound 4, Puniceusine D], the IC50 in series [2] is 150 µM; in [3], more than 200 µM; in series [1], 5.6 µM; in series [6], 130 µM. The MIC in series [7] amounted to 100 µg/mL (≈ 276 µM). In addition, in series [5], the IC50 at 24 h came to 11 µM.

`COc1cc2ccncc2c(O)c1Cc1c(OC)c(C)c(O)c2cnccc12` [Compound 5, Puniceusine E]: the concentration for half-maximal inhibition (IC50) in [2] was 200 µM; in series [3], more than 200 µM; in series [4] it was more than 200 µM; in series [1] it was 103 µM; in [6] it was 145 µM. Also, in series [5], the IC50 at 24 h was more than 80 µM.

As for `COc1cc2ccncc2c(O)c1CC(C)C(=O)O` (stereo not drawn) [Compound 6, Puniceusine F], the half-maximal inhibitory concentration (IC50) was more than 200 µM in series [2]; more than 200 µM in series [3]; more than 200 µM in series [4]; more than 200 µM in series [1]; 200 µM in [6]. For the same molecule, the 50% inhibitory concentration (IC50) at 24 h in [5] is more than 80 µM.

As for `COc1cc2ccncc2c2c(C)c(O)c(C)cc12` [Compound 7, Puniceusine G], the IC50 in series [2], in [3], in series [4], in [1] and in series [6] was more than 200 µM in each case. In addition, the half-inhibitory concentration (IC50) at 24 h in series [5] is more than 80 µM.

On to `COc1cc2ccncc2c(O)c1Cc1c(O)cc(O)c(OC)c1C(=O)C(C)=O` [Compound 8, Puniceusine H], for which the concentration for half-maximal inhibition (IC50) was 180 µM in series [2]; more than 200 µM in [3]; more than 200 µM in series [4]; 49 µM in series [1]; 100 µM in series [6]. For the same molecule, the IC50 at 24 h in series [5] was more than 80 µM.

Regarding `COc1cc2ccncc2c(O)c1Cc1c(O)cc(O)c2c1[C@@H](C)OC2` [Compound 9, Puniceusine I], the IC50 in series [2] was 68.8 µM; in series [3] it was 57.7 µM; in [4], more than 200 µM; in series [1] it was 27.2 µM; in series [6], 41.8 µM. In [5], the IC50 at 24 h is more than 80 µM.

Turning to `CCC(=O)c1c(C)c(O)c(Cc2c(OC)cc3ccncc3c2O)c(O)c1O` [Compound 10, Puniceusine J], the IC50 was more than 200 µM in series [2]; more than 200 µM in series [3]; 100 µM in series [4]; 30.8 µM in [1]; more than 200 µM in [6]. Further, in [5], the IC50 at 24 h was more than 80 µM.

On to `COc1cc2ccncc2c(O)c1Cc1c(O)c(OC)c2c(c1O)C(=O)O[C@H]2[C@@H](C)O` [Compound 11, Puniceusine K], for which the IC50 in series [2] was 190 µM; in series [3], more than 200 µM; in series [4], more than 200 µM; in series [1], 100 µM; in [6], 145 µM. In addition, in series [5], the half-maximal inhibitory concentration (IC50) at 24 h is more than 80 µM.

`CCc1cc(O)c(Cc2c(OC)cc3ccncc3c2O)c(=O)o1` [Compound 12, Puniceusine L]: the half-maximal inhibitory concentration (IC50) in series [2] is 170 µM; in series [3], more than 200 µM; in series [4], 150 µM; in series [1], 38.5 µM; in series [6], 117 µM. Besides, in series [5], the IC50 at 24 h was more than 80 µM.

In the case of `CCc1oc(=O)c(Cc2c(OC)cc3ccncc3c2O)c(O)c1C` [Compound 13, Puniceusine M], the IC50 was 37.9 µM in series [2]; more than 200 µM in series [3]; 32.6 µM in series [4]; 11.1 µM in [1]; 40.3 µM in [6]. Also, the IC50 at 24 h in [5] was more than 80 µM.

With `CCCCC(CC)COC(=O)CC[n+]1ccc2cc(OC)c(C)c(O)c2c1` (stereo not drawn) [Compound 14, Puniceusine N], the IC50 in series [2] was more than 200 µM; in [3], more than 200 µM; in [4] it was more than 200 µM; in [1] it was 200 µM; in series [6] it was more than 200 µM. Further, the MIC in series [7], in series [8] and in [9] was 100 µg/mL throughout. Further, the IC50 at 24 h in series [5] is more than 80 µM.

For the molecule `[Na+].[Na+].[Na+].[O]=[V]([O-])([O-])[O-]` [Na3VO4, reference compound], the IC50 in series [3] (read-out: Inhibitory Effect against Phosphatases (IC50) TCPTP) worked out at 2.4 µM; in series [6] (read-out: Inhibitory Effect against Phosphatases (IC50) SHP1), 4.4 µM.

Broadly, the IC50 is the midpoint of a concentration-inhibition curve. The term MIC denotes the lowest concentration that inhibits growth of the organism.
